For orientation: EC50 means the concentration giving half of the maximal effect.

This assay deals with T1, human recombinant mGluR5 (Homo sapiens, UniProt P41594).
T1 construct: expressed in transfected cells; host or cells: HEK 293 cell line cultured with tetracycline, hygromycin and geneticin; tetracycline removed 3-7 days before the assay
T1 sequence (P41594 21-1212): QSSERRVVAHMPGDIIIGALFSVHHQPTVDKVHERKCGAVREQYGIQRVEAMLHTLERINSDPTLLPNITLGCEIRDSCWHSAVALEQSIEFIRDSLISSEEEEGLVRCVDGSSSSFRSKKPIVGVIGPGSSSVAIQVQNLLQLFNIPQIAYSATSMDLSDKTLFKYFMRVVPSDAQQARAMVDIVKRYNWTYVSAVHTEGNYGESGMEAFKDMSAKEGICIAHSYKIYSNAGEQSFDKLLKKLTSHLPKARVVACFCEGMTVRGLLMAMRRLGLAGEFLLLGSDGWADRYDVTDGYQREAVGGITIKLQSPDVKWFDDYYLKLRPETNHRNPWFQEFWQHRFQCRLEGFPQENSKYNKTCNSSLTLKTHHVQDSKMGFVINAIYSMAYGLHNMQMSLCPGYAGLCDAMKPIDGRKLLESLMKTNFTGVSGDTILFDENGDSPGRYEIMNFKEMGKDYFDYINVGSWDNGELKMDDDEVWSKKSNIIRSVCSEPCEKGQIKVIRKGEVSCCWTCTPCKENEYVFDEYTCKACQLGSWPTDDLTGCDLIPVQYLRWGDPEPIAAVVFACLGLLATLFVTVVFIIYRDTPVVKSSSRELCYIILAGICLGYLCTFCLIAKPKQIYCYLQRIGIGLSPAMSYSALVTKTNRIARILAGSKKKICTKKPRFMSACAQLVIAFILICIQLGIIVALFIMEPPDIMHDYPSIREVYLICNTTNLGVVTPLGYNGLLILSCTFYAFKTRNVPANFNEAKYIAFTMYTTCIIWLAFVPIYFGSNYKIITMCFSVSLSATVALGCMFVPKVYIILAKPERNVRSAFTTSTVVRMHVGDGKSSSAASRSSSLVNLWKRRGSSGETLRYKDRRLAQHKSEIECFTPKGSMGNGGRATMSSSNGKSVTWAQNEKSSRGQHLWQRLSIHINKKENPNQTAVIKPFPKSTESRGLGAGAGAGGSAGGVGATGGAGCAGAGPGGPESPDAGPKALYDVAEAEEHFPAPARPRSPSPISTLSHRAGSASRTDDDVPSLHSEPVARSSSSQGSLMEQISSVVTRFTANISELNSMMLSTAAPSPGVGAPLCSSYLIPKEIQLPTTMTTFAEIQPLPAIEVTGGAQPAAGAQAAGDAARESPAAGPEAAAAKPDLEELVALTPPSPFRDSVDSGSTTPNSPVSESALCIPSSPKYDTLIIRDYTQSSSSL
Nature of the assay: positive modulation of mGluR5, calcium based FLIPR assay in HEK 293 cells. The conditions noted are these: HEK 293 cell line expressing human recombinant mGluR5; EC50 of the modulation of the glutamate response (glutamate approx. 5% basal stimulation); peak height of Ca release fluorescence signal. The method in brief: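 Potentiation EC50 derived by nonlinear fit of peak calcium fluorescence after a near-5%-maximal glutamate challenge, following 5 min compound exposure (intrinsic activity also recorded). Dye-loaded recombinant human mGluR5 HEK 293 cells in Ringer solution pH 7.4, 1% DMSO; plate controls were vehicle (100%) and 10 μM CDPPB (200%).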
In the case of `O=C(Cn1nc(-c2cccc(F)c2)nc1-c1ccccc1)N1CCN(c2ncccn2)CC1` [Example 07.10.07.], the EC50 came to 189 nM. As to `COc1ccc(-c2nc(-c3ccc(F)cc3)nn2CC(=O)N2CCN(c3cc(OC)ncn3)CC2)cc1` [Example 07.04.042.], the EC50 stood at 148 nM. The value for `O=C(Cn1nc(-c2ccc(F)cc2)nc1-c1ccc(F)cc1)N1CCN(c2cc(OC[C@H]3CCCO3)ncn2)CC1` [Example 07.09.03.] was 58 nM; that for `COc1ccnc(N2CCN(C(=O)Cn3nc(-c4ccc(F)c(C)c4)nc3C3CCCCC3)CC2)c1` [Example 07.04.068.] was 246 nM; that for `Cc1ccnc(N2CCN(C(=O)Cn3nc(-c4ccc(F)cc4)nc3-c3ccc(F)cn3)CC2)c1` [Example 07.04.143.] was 783 nM.

Consider `CN(C)c1cncc(N2CCN(C(=O)Cn3nc(-c4ccc(F)cc4)nc3-c3ccc(F)cc3)CC2)n1` [Example 07.03.11.], for which the EC50 was determined as 283 nM.

With `COc1ccc(-c2nc(-c3ccccc3)n(CC(=O)N3CCN(c4ncccn4)CC3)n2)cc1` [Example 07.10.02.], the EC50 came to 37 nM. The value for `Cc1cc(-c2nc(C3CCCC(C)C3)n(CC(=O)N3CCN(c4ccccn4)CC3)n2)ccc1F` (centres unmarked) [Example 07.04.149.] was 869 nM; that for `Cc1cc(-c2nc(C3CCCCC3)n(CC(=O)N3CCN(c4ncc(Br)cn4)CC3)n2)ccc1F` [Example 07.04.070.] was 318 nM; that for `O=C(Cn1nc(-c2ccc(F)cc2)nc1-c1ccc(F)cc1)N1CCN(c2cc(OCCN3CCNC3=O)ncn2)CC1` [Example 07.09.18.] was 103 nM. Take `COc1ccc(-c2nc(-c3ccc(F)cc3)nn2CC(=O)N2CCN(c3cccnn3)CC2)cc1` [Example 07.04.043.]: the EC50 worked out at 334 nM. The value for `CCCc1nc(-c2ccc(F)c(C)c2)nn1CC(=O)N1CCN(c2ncncn2)CC1` [Example 07.04.084.] was 1600 nM; that for `CN(C)c1cc(N2CCN(C(=O)Cn3nc(-c4ccc(F)cc4)nc3-c3ccc(F)cc3)CC2)ncn1` [Example 07.06.01., 2-(3,5-Bis-(4-fluoro-phenyl)-(1,2,4)triazol-1-yl)-1-(4-(6-dimethylamino-pyrimidin-4-yl)-piperazin-1-yl)-ethanone] was 167 nM; that for `COc1ccc(-c2nc(-c3ccc(OC)cc3)n(CC(=O)N3CCN(c4ccc(C(F)(F)F)cn4)CC3)n2)cc1` [Example 07.02.14.] was 1050 nM. Next, `O=C(Cn1nc(-c2ccc(F)cc2)nc1-c1ccc(F)cc1)N1CCN(c2ncncn2)CC1` [Example 07.03.14.]: 85 nM. The value for `CCC(C)c1nc(-c2ccc(F)c(C)c2)nn1CC(=O)N1CCN(c2cc(OC)ccn2)CC1` (centres unmarked) [Example 07.04.0100.] was 670 nM; that for `COCCN1CCN(c2cc(N3CCN(C(=O)Cn4nc(-c5ccc(F)cc5)nc4-c4ccc(F)cc4)CC3)ncn2)CC1` [Example 07.08.10.] was 1030 nM. Take `O=C(Cn1nc(-c2ccc(F)cn2)nc1-c1ccc(F)cc1)N1CCN(c2ccccn2)CC1` [Example 07.04.139.]: the half-maximal effective concentration (EC50) is 809 nM. For the compound `Cc1cc(-c2nc(-c3ccccc3)n(CC(=O)N3CCN(c4cccnn4)CC3)n2)ccc1F` [Example 07.04.059.], the EC50 was 160 nM. The value for `COc1cc(N2CCN(C(=O)Cn3nc(-c4ccccc4)nc3-c3ccccc3)CC2)ncn1` [Example 07.04.019.] was 1090 nM; that for `Cc1cc(-c2nc(C3CCCCC3)n(CC(=O)N3CCN(c4ncccn4)CC3)n2)ccc1F` [Example 07.04.066.] was 101 nM.

As for `Cc1ccc(-c2nc(-c3ccccc3)nn2CC(=O)N2CCN(c3ncccn3)CC2)cc1` [Example 07.10.22.], the concentration for a half-maximal effect (EC50) was 87 nM. On to `COc1ccc(-c2nc(-c3ccc(F)cc3)nn2CC(=O)N2CCN(c3ncc(Cl)cn3)CC2)cc1` [Example 07.04.045.], for which the EC50 is 80 nM. Turning to `COc1ccc(-c2nc(-c3ccccc3)n(CC(=O)N3CCN(c4ccccn4)CC3)n2)cc1` [Example 07.04.054.], the concentration giving a half-maximal response (EC50) stood at 100 nM. Turning to `Cc1cc(C)cc(-c2nc(-c3ccccc3)n(CC(=O)N3CCN(c4ncccn4)CC3)n2)c1` [Example 07.10.16.], the concentration for a half-maximal effect (EC50) was 31 nM. Consider `COc1ccc(-c2nc(-c3ccccc3)n(CC(=O)N3CCN(c4cc(OC)ncn4)CC3)n2)cc1` [Example 07.04.152.], for which the EC50 is 174 nM.

As for `Cc1cc(-c2nc(C3CCCCC3C)n(CC(=O)N3CCN(c4ccccn4)CC3)n2)ccc1F` (centres unmarked) [Example 07.04.133.], the concentration giving a half-maximal response (EC50) came out at 1080 nM.

On to `O=C(Cn1nc(-c2ccc(F)cc2)nc1-c1ccc(F)cc1)N1CCN(c2cnccn2)CC1` [Example 07.04.008.], for which the EC50 is 117 nM. The value for `Cc1cc(-c2nc(-c3ccccc3)nn2CC(=O)N2CCN(c3ccccn3)CC2)ccc1F` [Example 07.04.076.] was 220 nM; that for `O=C(Cn1nc(-c2ccc(F)cc2)nc1-c1ccc(F)cc1)N1CCN(c2cc(N3CCC(O)CC3)ncn2)CC1` [Example 07.08.02.] was 284 nM. The value for `O=C(Cn1nc(-c2ccc(F)cc2)nc1-c1ccc(F)cc1)N1CCN(c2cc(OCCCO)ncn2)CC1` [Example 07.09.20.] was 65 nM; that for `N#Cc1ccc(N2CCN(C(=O)Cn3nc(-c4ccc(F)cc4)nc3-c3ccc(F)cc3)CC2)nc1` [Example 07.04.11.] was 1570 nM; that for `Cc1cc(-c2nc(C3CCCCC3)n(CC(=O)N3CCN(c4ccccn4)CC3)n2)ccc1F` [Example 07.04.071.] was 347 nM.

Consider `CCC(C)c1nc(-c2ccc(F)c(C)c2)nn1CC(=O)N1CCN(c2cc(C)ccn2)CC1` (centres unmarked) [Example 07.04.099.], for which the concentration for a half-maximal effect (EC50) turned out to be 499 nM. The value for `N#Cc1ccnc(N2CCN(C(=O)Cn3nc(-c4ccc(F)cc4)nc3-c3ccc(F)cc3)CC2)n1` [Example 07.03.08.] was 124 nM. Regarding `COc1ccc(-c2nc(-c3ccc(F)cc3)n(CC(=O)N3CCN(c4cc(OC)ccn4)CC3)n2)cc1` [Example 07.04.039.], the concentration for a half-maximal effect (EC50) stood at 30 nM. Next, `O=C(Cn1nc(-c2ccccc2)nc1-c1ccccc1)N1CCN(c2ccccn2)CC1` [Example 07.02.27.]: 353 nM. Next, `CCN(C)c1cc(N2CCN(C(=O)Cn3nc(-c4ccc(F)cc4)nc3-c3ccc(F)cc3)CC2)ncn1` [Example 07.08.19.]: 208 nM. Next, `O=C(Cn1nc(-c2ccc(F)cc2)nc1-c1ccc(F)cc1)N1CCN(c2cc(N3CCCC3)ncn2)CC1` [Example 07.08.13.]: 343 nM; `Cc1cccc(-c2nc(-c3ccccc3)n(CC(=O)N3CCN(c4ncccn4)CC3)n2)c1` [Example 07.10.05.]: 17 nM; `O=C(Cn1nc(-c2ccc(F)cc2)nc1-c1ccc(F)cc1)N1CCN(c2cc(OCc3cccnc3)ncn2)CC1` [Example 07.09.22.]: 39 nM.

`O=C(Cn1nc(-c2ccc(F)cn2)nc1-c1ccc(F)cc1)N1CCN(c2ncccn2)CC1` [Example 07.04.140.]: the EC50 was found to be 320 nM. For `COCCNc1cc(N2CCN(C(=O)Cn3nc(-c4ccc(F)cc4)nc3-c3ccc(F)cc3)CC2)ncn1` [Example 07.08.21.], the half-maximal effective concentration (EC50) came out at 201 nM. Next, `COc1cccc(-c2nc(-c3ccc(F)cc3)n(CC(=O)N3CCN(c4ccccn4)CC3)n2)c1` [Example 07.04.049.]: 37 nM. Next, `COc1ccnc(N2CCN(C(=O)Cn3nc(-c4ccc(F)cc4)nc3-c3ccc(F)cc3)CC2)c1` [Example 07.03.01., 2-(3,5-Bis-(4-fluoro-phenyl)-(1,2,4)triazol-1-yl)-1-(4-(4-methoxy-pyridin-2-yl)-piperazin-1-yl)-ethanone]: 88 nM; `COc1ccc(-c2nc(-c3ccc(F)cc3)nn2CC(=O)N2CCN(c3ncc(Br)cn3)CC2)cc1` [Example 07.04.044.]: 88 nM.

For `Cc1cc(-c2nc(C3CCC(C)CC3)n(CC(=O)N3CCN(c4ccccn4)CC3)n2)ccc1F` (centres unmarked) [Example 07.04.129.], the EC50 amounted to 1320 nM. For `O=C(Cn1nc(-c2ccccc2)nc1-c1ccc(OC(F)F)cc1)N1CCN(c2ccccn2)CC1` [Example 7.04.166], the 50% effective concentration (EC50) is 431 nM.

In the case of `COc1cc(N2CCN(C(=O)Cn3nc(-c4ccc(C)c(C)c4)nc3-c3ccccc3)CC2)ncn1` [Example 07.10.30.], the EC50 worked out at 50 nM. Next, `Cc1cc(-c2nc(C3CCC(F)(F)CC3)n(CC(=O)N3CCN(c4ncccn4)CC3)n2)ccc1F` [Example 07.04.144.]: 1270 nM.

In the case of `O=C(Cn1nc(-c2ccc(F)cc2)nc1-c1ccc(F)cc1)N1CCN(c2ccccn2)CC1` [Example 07.01.02.], the 50% effective concentration (EC50) came to 56 nM. Next, `Cc1cc(-c2nc(-c3ccc(F)c(C)c3)n(CC(=O)N3CCN(c4ccccn4)CC3)n2)ccc1F` [Example 07.04.154.]: 54 nM; `CCCc1nc(-c2ccc(F)c(C)c2)nn1CC(=O)N1CCN(c2ncccn2)CC1` [Example 07.04.085.]: 379 nM; `COc1cc(N2CCN(C(=O)Cn3nc(-c4ccc(F)c(C)c4)nc3C(C)C)CC2)ncn1` [Example 07.04.086.]: 1170 nM. The value for `Cc1cc(-c2nc(CCC(C)C)n(CC(=O)N3CCN(c4ncccn4)CC3)n2)ccc1F` [Example 07.04.122.] was 140 nM; that for `COc1ccnc(N2CCN(C(=O)Cn3nc(-c4ccc(F)cn4)nc3-c3ccc(F)cc3)CC2)c1` [Example 07.04.142.] was 434 nM; that for `O=C(Cn1nc(-c2ccc(F)cc2)nc1-c1ccc(F)cc1)N1CCN(c2ccc(Br)cn2)CC1` [Example 07.03.20.] was 467 nM. For `O=C(Cn1nc(-c2ccc(F)cc2)nc1-c1ccccc1)N1CCN(c2ncccn2)CC1` [Example 07.10.14.], the 50% effective concentration (EC50) is 33 nM. Next, `O=C(Cn1nc(-c2ccc(F)cc2)nc1-c1ccc(F)cc1)N1CCN(c2ccc(Cl)nn2)CC1` [Example 07.04.009.]: 166 nM.
